Source: the supplement of paper PMC10307832

Legend:
Test in all cases: relative viability (nuclei count vs DMSO), 5 days (fraction); higher = more cells survive
Crenolanib + Pemetrexed = compound: CC1(COc2ccc3c(c2)ncn3-c2ccc3cccc(N4CCC(N)CC4)c3n2)COC1 [Crenolanib] + Nc1nc2[nH]cc(CCc3ccc(C(=O)N[C@@H](CCC(=O)O)C(=O)O)cc3)c2c(=O)[nH]1 [Pemetrexed] (partner 0.2 µM)
Summary of the method: (§1)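 Lung cancer cell lines were pin-tool dosed in 1536-well plates on the day after seeding, with either a lone drug or a fixed anchor-drug dose plus five library-drug doses (not always all listed) in √10 steps. Nuclei were counted on 4× images after 5 days. Relative viability is the ratio of treated-well to vehicle-well nuclei counts, with each value a median of duplicate plates.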

Tivantinib + Trametinib = compound: O=C1NC(=O)[C@@H](c2cn3c4c(cccc24)CCC3)[C@@H]1c1c[nH]c2ccccc12 [Tivantinib] + CC(=O)Nc1cccc(-n2c(=O)n(C3CC3)c(=O)c3c(Nc4ccc(I)cc4F)n(C)c(=O)c(C)c32)c1 [Trametinib] (partner 0.02 µM)
Summary of the method: as §1

Tivantinib + Decitabine = compound: O=C1NC(=O)[C@@H](c2cn3c4c(cccc24)CCC3)[C@@H]1c1c[nH]c2ccccc12 [Tivantinib] + Nc1ncn([C@H]2C[C@H](O)[C@@H](CO)O2)c(=O)n1 [Decitabine] (partner 2 µM)
Summary of the method: as §1

Tivantinib + Lapatinib = compound: O=C1NC(=O)[C@@H](c2cn3c4c(cccc24)CCC3)[C@@H]1c1c[nH]c2ccccc12 [Tivantinib] + CS(=O)(=O)CCNCc1ccc(-c2ccc3ncnc(Nc4ccc(OCc5cccc(F)c5)c(Cl)c4)c3c2)o1 [Lapatinib] (partner 2 µM)
Summary of the method: as §1

With UMC-11 as the cell line, how does the relative viability (Crenolanib + Pemetrexed; first compound 0.01 µM) read?
The relative viability was 0.791.

What about the relative viability (Crenolanib + Pemetrexed; first compound 0.03162 µM) of the same cell line?
Its relative viability is 0.755.

What about the relative viability (Crenolanib + Pemetrexed; first compound 0.1 µM) of the same cell line?
The relative viability was 0.738.

And the relative viability (Crenolanib + Pemetrexed; first compound 0.3162 µM)?
Its relative viability is 0.832.

What about the relative viability (Crenolanib + Pemetrexed; first compound 1 µM) of the same cell line?
The relative viability was 0.741.

And the relative viability (Tivantinib + Trametinib; first compound 0.01 µM)?
Its relative viability is 0.678.

What about the relative viability (Tivantinib + Trametinib; first compound 0.03162 µM) of the same cell line?
Its relative viability is 0.451.

And the relative viability (Tivantinib + Trametinib; first compound 0.1 µM)?
The relative viability was 0.666.

What about the relative viability (Tivantinib + Trametinib; first compound 0.3162 µM) of the same cell line?
Its relative viability is 0.693.

And the relative viability (Tivantinib + Decitabine; first compound 0.01 µM)?
The relative viability was 0.574.

What about the relative viability (Tivantinib + Decitabine; first compound 0.03162 µM) of the same cell line?
The relative viability was 0.532.

What about the relative viability (Tivantinib + Decitabine; first compound 0.1 µM) of the same cell line?
Its relative viability is 0.527.

And the relative viability (Tivantinib + Decitabine; first compound 0.3162 µM)?
Its relative viability is 0.434.

And the relative viability (Tivantinib + Lapatinib; first compound 0.01 µM)?
The relative viability was 1.03.

And the relative viability (Tivantinib + Lapatinib; first compound 0.03162 µM)?
Its relative viability is 0.673.

What about the relative viability (Tivantinib + Lapatinib; first compound 0.1 µM) of the same cell line?
The relative viability was 1.03.

And the relative viability (Tivantinib + Lapatinib; first compound 0.3162 µM)?
Its relative viability is 1.08.
